Laboratory results published in patent publication US20090123419A1, “TREATMENT OF UTERINE CANCER AND OVARIAN CANCER WITH A PARP INHIBITOR ALONE OR IN COMBINATION WITH ANTI-TUMOR AGENTS” (BiPar Sciences, priority 2007, published 2009).

Assay: Preclinical studies of BA with topotecan

NC(=O)c1ccc(I)c([N+](=O)[O-])c1 [BA, 4-iodo-3-nitrobenzamide]
effect on antitumor activity of topotecan: potentiates the antitumor activity of topotecan
